The values that follow come from ChEMBL document CHEMBL5727989, “Compounds useful as inhibitors of ATR kinase” (2020).

Chain of Serine/threonine-protein kinase ATR (Q13535 whole entry): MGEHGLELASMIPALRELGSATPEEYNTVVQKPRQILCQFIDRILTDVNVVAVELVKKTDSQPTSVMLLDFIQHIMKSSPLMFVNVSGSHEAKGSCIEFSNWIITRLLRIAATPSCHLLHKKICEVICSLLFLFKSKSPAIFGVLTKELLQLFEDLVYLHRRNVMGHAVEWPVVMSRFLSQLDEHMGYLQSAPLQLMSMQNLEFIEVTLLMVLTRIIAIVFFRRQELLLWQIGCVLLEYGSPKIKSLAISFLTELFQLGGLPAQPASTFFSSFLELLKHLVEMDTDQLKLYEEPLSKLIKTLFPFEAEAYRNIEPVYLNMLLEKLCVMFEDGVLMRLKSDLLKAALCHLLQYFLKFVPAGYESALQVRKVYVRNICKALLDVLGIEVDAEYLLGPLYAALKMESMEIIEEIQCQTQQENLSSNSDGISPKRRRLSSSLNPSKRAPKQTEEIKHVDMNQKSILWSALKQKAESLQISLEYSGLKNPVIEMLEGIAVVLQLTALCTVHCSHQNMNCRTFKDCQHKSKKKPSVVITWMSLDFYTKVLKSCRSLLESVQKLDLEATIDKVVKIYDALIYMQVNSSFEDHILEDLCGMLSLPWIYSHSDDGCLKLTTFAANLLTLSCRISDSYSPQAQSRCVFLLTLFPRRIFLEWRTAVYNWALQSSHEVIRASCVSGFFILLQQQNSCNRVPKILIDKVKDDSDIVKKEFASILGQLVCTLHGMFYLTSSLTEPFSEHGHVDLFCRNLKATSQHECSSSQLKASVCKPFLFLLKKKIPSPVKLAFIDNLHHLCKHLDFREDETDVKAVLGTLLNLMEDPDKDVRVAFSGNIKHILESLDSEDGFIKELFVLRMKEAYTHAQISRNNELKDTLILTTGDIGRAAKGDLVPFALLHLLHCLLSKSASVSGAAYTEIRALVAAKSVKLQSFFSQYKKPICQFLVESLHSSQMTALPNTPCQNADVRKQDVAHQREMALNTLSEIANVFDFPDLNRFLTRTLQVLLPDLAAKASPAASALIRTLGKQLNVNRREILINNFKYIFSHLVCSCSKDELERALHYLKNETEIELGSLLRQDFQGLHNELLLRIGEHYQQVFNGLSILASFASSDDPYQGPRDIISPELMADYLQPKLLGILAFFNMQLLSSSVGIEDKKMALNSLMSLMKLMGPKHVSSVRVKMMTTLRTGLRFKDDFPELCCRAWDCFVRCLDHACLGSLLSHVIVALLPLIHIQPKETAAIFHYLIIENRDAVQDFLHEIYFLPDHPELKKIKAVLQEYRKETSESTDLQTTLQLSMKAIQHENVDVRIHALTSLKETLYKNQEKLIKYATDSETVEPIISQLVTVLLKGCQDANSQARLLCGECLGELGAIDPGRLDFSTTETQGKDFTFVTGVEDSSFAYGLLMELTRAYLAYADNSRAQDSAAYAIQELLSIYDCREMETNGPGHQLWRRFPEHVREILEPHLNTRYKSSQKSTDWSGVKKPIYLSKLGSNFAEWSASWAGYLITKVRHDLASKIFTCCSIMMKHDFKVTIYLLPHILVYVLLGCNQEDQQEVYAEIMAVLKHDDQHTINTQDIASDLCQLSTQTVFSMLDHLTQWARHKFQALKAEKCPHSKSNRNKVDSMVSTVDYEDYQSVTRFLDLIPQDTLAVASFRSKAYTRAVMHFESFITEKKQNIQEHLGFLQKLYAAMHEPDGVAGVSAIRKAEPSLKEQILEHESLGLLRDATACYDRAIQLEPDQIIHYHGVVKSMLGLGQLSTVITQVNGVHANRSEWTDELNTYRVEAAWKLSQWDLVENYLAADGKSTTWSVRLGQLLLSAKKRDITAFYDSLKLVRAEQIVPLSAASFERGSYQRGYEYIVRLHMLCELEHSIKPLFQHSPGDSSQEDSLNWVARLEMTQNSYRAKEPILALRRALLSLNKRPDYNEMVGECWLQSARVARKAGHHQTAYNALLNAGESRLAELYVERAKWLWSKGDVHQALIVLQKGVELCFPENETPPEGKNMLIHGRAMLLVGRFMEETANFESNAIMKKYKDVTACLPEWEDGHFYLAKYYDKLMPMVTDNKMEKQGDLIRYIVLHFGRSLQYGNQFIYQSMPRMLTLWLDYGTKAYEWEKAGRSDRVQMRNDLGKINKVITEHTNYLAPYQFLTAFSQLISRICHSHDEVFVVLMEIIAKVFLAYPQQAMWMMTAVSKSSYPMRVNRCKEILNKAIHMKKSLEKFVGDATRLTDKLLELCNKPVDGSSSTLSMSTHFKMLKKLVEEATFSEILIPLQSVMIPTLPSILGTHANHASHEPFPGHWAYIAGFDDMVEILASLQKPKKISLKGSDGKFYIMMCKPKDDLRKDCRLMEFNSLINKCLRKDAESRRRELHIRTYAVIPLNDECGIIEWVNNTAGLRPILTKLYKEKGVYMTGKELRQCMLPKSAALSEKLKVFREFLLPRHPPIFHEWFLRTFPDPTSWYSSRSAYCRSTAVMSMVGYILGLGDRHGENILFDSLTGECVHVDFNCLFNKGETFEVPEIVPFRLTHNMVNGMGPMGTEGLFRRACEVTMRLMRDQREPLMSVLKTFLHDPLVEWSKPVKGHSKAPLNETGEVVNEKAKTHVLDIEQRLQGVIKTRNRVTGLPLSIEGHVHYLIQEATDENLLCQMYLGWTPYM

The assay addresses Serine/threonine-protein kinase ATR (Homo sapiens, UniProt Q13535). As to the kind of experiment: Inhibition Assay: Assays were carried out at 25° C. in the presence of 5 nM full-length ATR. An assay stock buffer solution was prepared containing all of the reagents listed above, with the exception of ATP and the test compound of interest. 13.5 μL of the stock solution was placed in a 96 well plate followed by addition of 2 μL of DMSO stock containing serial dilutions of the test compound (typically starting from a final concentration of 15 μM with 3-fold serial dilutions) in duplicate (final DMSO concentration 7%). The plate was pre-incubated for 10 minutes at 25° C. and the reaction initiated by addition of 15 μL [γ-33P]ATP (final concentration 10 μM). The reaction was stopped after 24 hours by the addition of 30 μL 0.1M phosphoric acid containing 2 mM ATP. A multiscreen phosphocellulose filter 96-well plate (Millipore, Cat no. MAPHN0B50) was pretreated with 100 μL 0.2M phosphoric acid prior to the addition of 45 μL of the stopped assay mixture. The plate was washed with 5×200 μL 0.2M phosphoric acid. After drying, 100 μL Optiphase SuperMix liquid scintillation cocktail (Perkin Elmer) was added to the well prior to scintillation counting (1450 Microbeta Liquid Scintillation Counter, Wallac).
Turning to `Nc1nn2cc(F)cnc2c1C(=O)Nc1cnccc1N1CCOCC1`, the Ki entry is “in the range around 505 nM”.

With `Nc1nn2cc(F)cnc2c1C(=O)Nc1cnccc1N1CCCCC1`, the inhibition constant Ki result was “in the range around 505 nM”.

For the compound `CN(C)CCNC(=O)C1CCN(c2c(F)cncc2NC(=O)c2c(N)nn3cc(F)cnc23)CC1`, the Ki entry was “in the range around 505 nM”.

Turning to `Cc1nn(C)cc1-c1ccncc1NC(=O)c1c(N)nn2cc(F)cnc12`, the Ki entry is “in the range around 505 nM”.

Turning to `CNC(=O)C1CCN(c2c(F)cncc2NC(=O)c2c(N)nn3cc(F)cnc23)CC1`, the Ki entry is “in the range around 505 nM”.

With `COC1CCN(c2ccncc2NC(=O)c2c(N)nn3cc(F)cnc23)CC1`, the Ki entry was “in the range around 505 nM”.
